Each compound was assayed against Human MOR (Homo sapiens (Human), UniProt P35372) (assay: BRET G protein activation assay, human MOR in transfected HEK-293T cells). Settings: BRET G protein activation, HEK-293T; mean ± SEM; read-out: EC50 Human MOR.
Sequence of Human MOR (P35372 whole entry): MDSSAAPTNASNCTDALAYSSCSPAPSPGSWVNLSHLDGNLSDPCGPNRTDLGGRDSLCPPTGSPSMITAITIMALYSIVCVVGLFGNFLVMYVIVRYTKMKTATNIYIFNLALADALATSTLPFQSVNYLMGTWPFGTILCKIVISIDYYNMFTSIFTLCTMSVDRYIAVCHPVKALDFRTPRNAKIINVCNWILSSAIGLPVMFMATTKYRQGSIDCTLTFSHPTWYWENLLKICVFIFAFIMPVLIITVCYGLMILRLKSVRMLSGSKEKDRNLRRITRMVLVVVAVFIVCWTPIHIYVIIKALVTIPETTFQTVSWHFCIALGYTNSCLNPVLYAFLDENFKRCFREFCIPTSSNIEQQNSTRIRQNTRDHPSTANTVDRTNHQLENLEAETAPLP
Assay type: cell-based
Excerpt: Transfection. Human or mouse MOR cDNA was transfected alongside GαoB with RLuc8 inserted at position 91 (GαoB-RLuc8), Gβ1 (β1), and Gγ2 fused to the full-length mVenus at its N terminus (mVenus γ2) into HEK-293T cells (5×10^6 cells/plate) in 10-cm dishes using PEI (Polysciences Inc.; Warrington, PA) in a 1:1 ratio diluted in Opti-MEM (Life Technologies Corp.; Grand Island, NY) to assay for G protein activation as described previously (Rives, M.-L. et al. J. Biol. Chem. 2012, 287, 27050-4; Negri, A.; Rives, M.-L.; Caspers, M. J. et al. J. Chem. Inf. Model. 2013, 53, 521-526). Cells were maintained in the Dulbecco's Modified Eagle Medium (high glucose #11965; Life Technologies) supplemented with 10% FBS (Premium Select, Atlanta Biologicals; Atlanta, GA) and 100 U/mL penicillin and 100 μg/mL streptomycin (#15140, Life Technologies). After 24 hours the media was changed, and the experiment was performed 24 hours later (48 hours after transfection).
BRET. Transfected cells were dissociated and resuspended in phosphate-buffered saline (PBS). Approximately 200,000 cells/well were added to a black-framed, white well 96-well plate (#60050; Perkin Elmer; Waltham, MA). The microplate was centrifuged and the cells were resuspended in PBS. Then 5 μM of the luciferase substrate coelenterazine H was added to each well for 5 minutes. Following coelenterazine H addition, ligands were added and the BRET signal was measured at 5 minutes on a PHERAstar FS plate reader. Quantification of the BRET signal required calculating the ratio of the light emitted by the energy acceptor, mVenus (510-540 nm), over the light emitted by the energy donor, RLuc8 (485 nm). […] Dose response curves were fit using three-parameter logistics equation in GraphPad Prism 6.
With `CCOC(=O)CCCCCCNC1c2ccccc2S(=O)(=O)N(C)c2ccsc21` (stereo not drawn) [compound 6, Ethyl 7-((4-methyl-5,5-dioxido-4,10-dihydrobenzo[f]thieno[3,2-c][1,2]thiazepin-10-yl)amino)heptanoate] the EC50 was less than 10 µM. `COCCCNC1c2ccccc2S(=O)(=O)N(C)c2ccsc21` (stereo not drawn) [compound 7, 10-((3-Methoxypropyl)amino)-4-methyl-4,10-dihydrobenzo[f]thieno[3,2-c][1,2]thiazepine 5,5-dioxide] gave an EC50 of less than 10 µM. `COCCCNC1c2ccccc2N(C)S(=O)(=O)c2ccccc21` (stereo not drawn) [compound 10, 11-((3-Methoxypropyl)amino)-6-methyl-6,11-dihydrodibenzo[c,f][1,2]thiazepine 5,5-dioxide] gave an EC50 of less than 10 µM. `COCCCNC1c2cc(Br)ccc2N(C)S(=O)(=O)c2cc(Cl)ccc21` (stereo not drawn) [compound 11, 9-Bromo-3-chloro-11-((3-methoxypropyl)amino)-6-methyl-6,11-dihydrodibenzo[c,f][1,2]thiazepine 5,5-dioxide] gave an EC50 of less than 10 µM. In the case of `CC(=O)OCCCCCCNC1c2ccccc2N(C)S(=O)(=O)c2cc(Cl)ccc21` (stereo not drawn) [compound 13, 6-((3-Chloro-6-methyl-5,5-dioxido-6,11-dihydrodibenzo[c,f][1,2]thiazepin-11-yl)amino)hexyl acetate], the EC50 is reported as less than 10 µM. Work on `COCCCNC1c2ccccc2N(C)S(=O)(=O)c2cc(C)ccc21` (stereo not drawn) [compound 15, 11-((3-Methoxypropyl)amino)-3,6-dimethyl-6,11-dihydrodibenzo[c,f][1,2]thiazepine 5,5-dioxide] yielded an EC50 of less than 10 µM. In the case of `CCOC(CCCNC1c2ccccc2N(C)S(=O)(=O)c2cc(Cl)ccc21)OCC` (stereo not drawn) [compound 24, 3-Chloro-11-((4,4-diethoxybutyl)amino)-6-methyl-6,11-dihydrodibenzo[c,f][1,2]thiazepine 5,5-dioxide], the EC50 is reported as less than 10 µM. In the case of `CCCCCCCNC1c2ccccc2N(C)S(=O)(=O)c2cc(Cl)ccc21` (stereo not drawn) [compound 26, 3-Chloro-11-(heptylamino)-6-methyl-6,11-dihydrodibenzo [c,f][1,2]thiazepine 5,5-dioxide], the EC50 is reported as less than 10 µM. `COCCCNC1c2ccccc2N(C)S(=O)(=O)c2cc(OC)ccc21` (stereo not drawn) [compound 27, 3-Methoxy-11-((3-methoxypropyl)amino)-6-methyl-6,11-dihydrodibenzo [c,f][1,2]thiazepine 5,5-dioxide] showed an EC50 of less than 10 µM. In the case of `COCCCNC1c2ccccc2N(C)S(=O)(=O)c2cc(Oc3ccccc3)ccc21` (stereo not drawn) [compound 29, 11-((3-Methoxypropyl)amino)-6-methyl-3-phenoxy-6,11-dihydrodibenzo [c,f][1,2]thiazepine 5,5-dioxide], the EC50 is reported as less than 10 µM. With `CN1c2ccccc2C(NCCCC2OCCCO2)c2ccc(Cl)cc2S1(=O)=O` (stereo not drawn) [compound 31, 11-((3-(1,3-Dioxan-2-yl)propyl)amino)-3-chloro-6-methyl-6,11-dihydrodibenzo[c,f][1,2]thiazepine 5,5-dioxide] the EC50 was less than 10 µM. For `CSCCCNC1c2ccccc2N(C)S(=O)(=O)c2cc(Cl)ccc21` (stereo not drawn) [compound 33, 3-Chloro-6-methyl-11-((3-(methylthio)propyl)amino)-6,11-dihydrodibenzo[c,f][1,2]thiazepine 5,5-dioxide], the EC50 was less than 10 µM. `CC(C)OCCCNC1c2ccccc2N(C)S(=O)(=O)c2cc(Cl)ccc21` (stereo not drawn) [compound 35, 3-Chloro-11-((3-isopropoxypropyl)amino)-6-methyl-6,11-dihydrodibenzo [c,f][1,2]thiazepine 5,5-dioxide] was tested, and the EC50 was less than 10 µM. For `COCCOCCNC1c2ccccc2N(C)S(=O)(=O)c2cc(Cl)ccc21` (stereo not drawn) [compound 36, 3-Chloro-11-((2-(2-methoxyethoxy)ethyl)amino)-6-methyl-6,11-dihydrodibenzo[c,f][1,2]thiazepine 5,5-dioxide], the EC50 was less than 10 µM. With `COCCCCNC1c2ccccc2N(C)S(=O)(=O)c2cc(Cl)ccc21` (stereo not drawn) [compound 39, 3-Chloro-11-((4-methoxybutyl)amino)-6-methyl-6,11-dihydrodibenzo [c,f][1,2]thiazepine 5,5-dioxide] the EC50 was less than 10 µM. For `COCCNC1c2ccccc2N(C)S(=O)(=O)c2cc(Cl)ccc21` (stereo not drawn) [compound 42, 3-Chloro-11-((2-methoxyethyl)amino)-6-methyl-6,11-dihydrodibenzo [c,f][1,2]thiazepine 5,5-dioxide], the EC50 was less than 10 µM. With `COCCCNC1c2ccccc2S(=O)(=O)N(C)c2c(Br)csc21` (stereo not drawn) [compound 43, 3-Bromo-10-((3-methoxypropyl)amino)-4-methyl-4, 10-dihydrobenzo[f]thieno[3,2-c][1,2]thiazepine 5,5-dioxide] the EC50 was less than 20 µM. For `CN1c2ccccc2C(NCC2CCOC2)c2ccc(Cl)cc2S1(=O)=O` (stereo not drawn) [compound 46, 3-chloro-6-methyl-11-(((tetrahydrofuran-3-yl)methyl)amino)-6,11-dihydrodibenzo[c,f][1,2]thiazepine 5,5-dioxide], the EC50 was less than 10 µM. `CN1CCCC1CCNC1c2ccccc2N(C)S(=O)(=O)c2cc(Cl)ccc21` (stereo not drawn) [compound 47, 3-chloro-6-methyl-11-((2-(1-methylpyrrolidin-2-yl)ethyl)amino)-6,11-dihydrodibenzo[c,f][1,2]thiazepine 5,5-dioxide] gave an EC50 of less than 20 µM. Work on `COCCCNC1c2ccccc2S(=O)(=O)N(C)c2c(OC)cccc21` (stereo not drawn) [compound 50, 7-Methoxy-11-((3-methoxypropyl)amino)-6-methyl-6,11-dihydrodibenzo [c,f][1,2]thiazepine 5,5-dioxide] yielded an EC50 of less than 20 µM. For `COCCCNC1c2ccccc2N(C)S(=O)(=O)c2cc([S+](C)[O-])ccc21` (stereo not drawn) [compound 55, 11-((3-Methoxypropyl)amino)-6-methyl-3-(methylsulfinyl)-6,11-dihydrodibenzo[c,f][1,2]thiazepine 5,5-dioxide], the EC50 was less than 20 µM. With `COCCCNC1c2ccccc2N(C)S(=O)(=O)c2cc(-c3ccccc3)ccc21` (stereo not drawn) [compound 56, 11-((3-Methoxypropyl)amino)-6-methyl-3-phenyl-6,11-dihydrodibenzo[c,f][1,2]thiazepine 5,5-dioxide] the EC50 was less than 10 µM. Compound `CN1c2ccccc2C(NCCCCCCC(=O)NCCO)c2ccc(Cl)cc2S1(=O)=O` (stereo not drawn) [compound 57, 7-((3-Chloro-6-methyl-5,5-dioxido-6,11-dihydrodibenzo [c,f][1,2]thiazepin-11-yl)amino)-N-(2-hydroxyethyl) heptanamide] has an EC50 of less than 10 µM. `CN1c2ccccc2C(NCCCCCCC2=NCCO2)c2ccc(Cl)cc2S1(=O)=O` (stereo not drawn) [compound 58, 3-Chloro-11-((6-(4,5-dihydrooxazol-2-yl)hexyl)amino)-6-methyl-6,11-dihydrodibenzo[c,f][1,2]thiazepine 5,5-dioxide] was tested, and the EC50 was less than 10 µM. Work on `COCCCNC1c2ccccc2N(C)S(=O)(=O)c2cc(OC(C)=O)ccc21` (stereo not drawn) [compound 59, 11-((3-Methoxypropyl)amino)-6-methyl-5,5-dioxido-6,11-dihydrodibenzo[c,f][1,2]thiazepin-3-yl acetate] yielded an EC50 of less than 10 µM. Compound `COCCCNC1c2ccccc2N(C)S(=O)(=O)c2ccc(Cl)cc21` (stereo not drawn) [compound 60, 2-Chloro-11-((3-methoxypropyl)amino)-6-methyl-6,11-dihydrodibenzo [c,f][1,2]thiazepine 5,5-dioxide] has an EC50 of less than 20 µM. `COCCCNC1c2ccccc2N(C)S(=O)(=O)c2cc(SC(C)C)ccc21` (stereo not drawn) [compound 63, 3-(Isopropylthio)-11-((3-methoxypropyl)amino)-6-methyl-6,11-dihydrodibenzo[c,f][1,2]thiazepine 5,5-dioxide] showed an EC50 of less than 10 µM. `CCSc1ccc2c(c1)S(=O)(=O)N(C)c1ccccc1C2NCCCOC` (stereo not drawn) [compound 64, 3-(Ethylthio)-11-((3-methoxypropyl)amino)-6-methyl-6,11-dihydrodibenzo[c,f][1,2]thiazepine 5,5-dioxide] gave an EC50 of less than 10 µM. Work on `CCN1c2ccccc2C(NCCCOC)c2ccccc2S1(=O)=O` (stereo not drawn) [compound 65, 6-Ethyl-11-((3-methoxypropyl)amino)-6,11-dihydrodibenzo[c,f][1,2]thiazepine 5,5-dioxide] yielded an EC50 greater than 20 µM. In the case of `COC(C)CCNC1c2ccccc2N(C)S(=O)(=O)c2cc(Cl)ccc21` (stereo not drawn) [compound 67, 3-Chloro-11-((3-methoxybutyl)amino)-6-methyl-6,11-dihydrodibenzo [c,f][1,2]thiazepine 5,5-dioxide], the EC50 is reported as less than 10 µM. Compound `COCC(C)CNC1c2ccccc2N(C)S(=O)(=O)c2cc(Cl)ccc21` (stereo not drawn) [compound 68, 3-Chloro-11-((3-methoxy-2-methylpropyl)amino)-6-methyl-6,11-dihydrodibenzo[c,f][1,2]thiazepine 5,5-dioxide] has an EC50 of less than 10 µM. `COCCCNC1c2ccc(Cl)cc2N(C)S(=O)(=O)c2ccccc21` (stereo not drawn) [compound 69, 8-Chloro-11-((3-methoxypropyl)amino)-6-methyl-6,11-dihydrodibenzo [c,f][1,2]thiazepine 5,5-dioxide] gave an EC50 of less than 20 µM. Compound `COCCCNC1c2ccc(Br)cc2S(=O)(=O)N(C)c2ccsc21` (stereo not drawn) [compound 72, 7-Bromo-10-((3-methoxypropyl)amino)-4-methyl-4, 10-dihydrobenzo[f]thieno[3,2-c][1,2]thiazepine 5,5-dioxide] has an EC50 of less than 10 µM.

— patent US20240092802A1, “MU-OPIOID RECEPTOR AGONISTS AND USES THEREFOR” (Kures, Inc., priority 2020, published 2024)
